Experimental data from ChEMBL document CHEMBL1201862, “PubChem BioAssay data set” (2004).
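In this assay, cells in 96-well plates receive the compound at five concentrations for 48 hours. Endpoints are linearly interpolated between the surrounding concentrations. GI50: concentration for 50% inhibition of growth.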 Calls of active or inactive are those of the source. No stated cut-off is given here; in the data, active = GI50 up to about 1.1 µM and inactive = higher.

How the values were obtained:
Assay in all cases: inhibition of tumour cell growth, NCI panel, 48 h
SNB-19 = tested on: SNB-19
NCI-H522 = tested on: NCI-H522
NCI-H23 = tested on: NCI-H23
M14 = tested on: M14
TK-10 = tested on: TK-10
MDA-MB-231 = tested on: MDA-MB-231
COLO 205 = tested on: COLO 205
UACC-62 = tested on: UACC-62
SF-268 = tested on: SF-268
HL-60 = tested on: HL-60
OVCAR-4 = tested on: OVCAR-4
OVCAR-8 = tested on: OVCAR-8
HT-29 = tested on: HT-29
SK-OV-3 = tested on: SK-OV-3
U-251 = tested on: U-251
ACHN = tested on: ACHN
NCI/ADR-RES = tested on: NCI/ADR-RES
MDA-MB-435 = tested on: MDA-MB-435
SK-MEL-5 = tested on: SK-MEL-5
SK-MEL-2 = tested on: SK-MEL-2
CAKI-1 = tested on: CAKI-1
SR = tested on: SR
786-0 = tested on: 786-0
KM12 = tested on: KM12
SN12C = tested on: SN12C
DU-145 = tested on: DU-145
SF-539 = tested on: SF-539
PC-3 = tested on: PC-3
RPMI-8226 = tested on: RPMI-8226
NCI-H460 = tested on: NCI-H460
MDA-N = tested on: MDA-N
SNB-75 = tested on: SNB-75
K562 = tested on: K562
A498 = tested on: A498
Hs-578T = tested on: Hs-578T
LOX IMVI = tested on: LOX IMVI
RXF 393 = tested on: RXF 393
T47D = tested on: T47D
SK-MEL-28 = tested on: SK-MEL-28
Malme-3M = tested on: Malme-3M
UACC-257 = tested on: UACC-257
CCRF-CEM = tested on: CCRF-CEM
A549 = tested on: A549
HCT-116 = tested on: HCT-116
UO-31 = tested on: UO-31
MCF7 = tested on: MCF7
HOP-92 = tested on: HOP-92
HCC 2998 = tested on: HCC 2998
MOLT-4 = tested on: MOLT-4
SW-620 = tested on: SW-620
HCT-15 = tested on: HCT-15
SF-295 = tested on: SF-295
BT-549 = tested on: BT-549
EKVX = tested on: EKVX
OVCAR-3 = tested on: OVCAR-3
IGROV-1 = tested on: IGROV-1
OVCAR-5 = tested on: OVCAR-5
HOP-62 = tested on: HOP-62
NCI-H226 = tested on: NCI-H226

SMILES: O=[N+]([O-])C(/C=C(\Cl)[N+](=O)[O-])=C(Nc1ccccc1)Nc1ccccc1
- GI50 (SNB-19): 17.5 µM (inactive)
- GI50 (NCI-H522): 2.21 µM (inactive)
- GI50 (NCI-H23): 7.96 µM (inactive)
- GI50 (M14): 9.84 µM (inactive)
- GI50 (TK-10): 12.8 µM (inactive)
- GI50 (MDA-MB-231): 10.7 µM (inactive)
- GI50 (COLO 205): 8.53 µM (inactive)
- GI50 (UACC-62): 7.45 µM (inactive)
- GI50 (SF-268): 14.3 µM (inactive)
- GI50 (HL-60): 2.59 µM (inactive)
- GI50 (OVCAR-4): 6.76 µM (inactive)
- GI50 (OVCAR-8): 8.41 µM (inactive)
- GI50 (HT-29): 6.21 µM (inactive)
- GI50 (SK-OV-3): 20.1 µM (inactive)
- GI50 (U-251): 14.3 µM (inactive)
- GI50 (ACHN): 13.2 µM (inactive)
- GI50 (NCI/ADR-RES): 7.93 µM (inactive)
- GI50 (MDA-MB-435): 5 µM (inactive)
- GI50 (SK-MEL-5): 13.3 µM (inactive)
- GI50 (SK-MEL-2): 16.4 µM (inactive)
- GI50 (CAKI-1): 13.7 µM (inactive)
- GI50 (SR): 2.6 µM (inactive)
- GI50 (786-0): 3.7 µM (inactive)
- GI50 (KM12): 11.9 µM (inactive)
- GI50 (SN12C): 15.5 µM (inactive)
- GI50 (DU-145): 17.1 µM (inactive)
- GI50 (SF-539): 11.2 µM (inactive)
- GI50 (PC-3): 14.6 µM (inactive)
- GI50 (RPMI-8226): 2.28 µM (inactive)
- GI50 (NCI-H460): 16.4 µM (inactive)
- GI50 (MDA-N): 5.58 µM (inactive)
- GI50 (SNB-75): 1.26 µM (inactive)
- GI50 (K562): 2.94 µM (inactive)
- GI50 (A498): 17.9 µM (inactive)
- GI50 (Hs-578T): 8.59 µM (inactive)
- GI50 (LOX IMVI): 16 µM (inactive)
- GI50 (RXF 393): 4.65 µM (inactive)
- GI50 (T47D): 7.43 µM (inactive)
- GI50 (SK-MEL-28): 9.86 µM (inactive)
- GI50 (Malme-3M): 8.67 µM (inactive)
- GI50 (UACC-257): 13.9 µM (inactive)
- GI50 (CCRF-CEM): 1.44 µM (inactive)
- GI50 (A549): 17 µM (inactive)
- GI50 (HCT-116): 1.98 µM (inactive)
- GI50 (UO-31): 12.1 µM (inactive)
- GI50 (MCF7): 0.843 µM (active)
- GI50 (HOP-92): 4.69 µM (inactive)
- GI50 (HCC 2998): 21.4 µM (inactive)
- GI50 (MOLT-4): 1.75 µM (inactive)
- GI50 (SW-620): 2.79 µM (inactive)
- GI50 (HCT-15): 8.26 µM
- GI50 (SF-295): 17.3 µM (inactive)
- GI50 (BT-549): 7.24 µM (inactive)
- GI50 (EKVX): 13.5 µM (inactive)
- GI50 (OVCAR-3): 5.19 µM (inactive)
- GI50 (IGROV-1): 17.2 µM (inactive)
- GI50 (OVCAR-5): 5.36 µM (inactive)

SMILES: Cn1c(=O)c2c([nH]/c(=N/N=C/c3ccccc3C(=O)O)n2C)n(C)c1=O
- GI50 (SNB-19): > 100 µM (inactive)
- GI50 (NCI-H522): > 100 µM (inactive)
- GI50 (NCI-H23): > 100 µM (inactive)
- GI50 (M14): > 100 µM (inactive)
- GI50 (TK-10): > 100 µM (inactive)
- GI50 (MDA-MB-231): > 100 µM (inactive)
- GI50 (COLO 205): > 100 µM (inactive)
- GI50 (UACC-62): > 100 µM (inactive)
- GI50 (SF-268): > 100 µM (inactive)
- GI50 (HL-60): > 100 µM (inactive)
- GI50 (OVCAR-4): > 100 µM (inactive)
- GI50 (OVCAR-8): > 100 µM (inactive)
- GI50 (HT-29): > 100 µM (inactive)
- GI50 (SK-OV-3): > 100 µM (inactive)
- GI50 (U-251): > 100 µM (inactive)
- GI50 (ACHN): > 100 µM (inactive)
- GI50 (NCI/ADR-RES): > 100 µM (inactive)
- GI50 (MDA-MB-435): > 100 µM (inactive)
- GI50 (SK-MEL-5): > 100 µM (inactive)
- GI50 (SK-MEL-2): > 100 µM (inactive)
- GI50 (CAKI-1): > 100 µM (inactive)
- GI50 (SR): > 100 µM (inactive)
- GI50 (786-0): > 100 µM (inactive)
- GI50 (KM12): > 100 µM (inactive)
- GI50 (SN12C): > 100 µM (inactive)
- GI50 (HOP-62): > 100 µM (inactive)
- GI50 (DU-145): > 100 µM (inactive)
- GI50 (SF-539): > 100 µM (inactive)
- GI50 (PC-3): > 100 µM (inactive)
- GI50 (RPMI-8226): > 100 µM (inactive)
- GI50 (NCI-H460): > 100 µM (inactive)
- GI50 (MDA-N): > 100 µM (inactive)
- GI50 (SNB-75): > 100 µM (inactive)
- GI50 (K562): > 100 µM (inactive)
- GI50 (A498): > 100 µM (inactive)
- GI50 (Hs-578T): > 100 µM (inactive)
- GI50 (LOX IMVI): > 100 µM (inactive)
- GI50 (RXF 393): > 100 µM (inactive)
- GI50 (T47D): > 100 µM (inactive)
- GI50 (NCI-H226): > 100 µM (inactive)
- GI50 (SK-MEL-28): > 100 µM (inactive)
- GI50 (Malme-3M): > 100 µM (inactive)
- GI50 (UACC-257): > 100 µM (inactive)
- GI50 (CCRF-CEM): > 100 µM (inactive)
- GI50 (A549): > 100 µM (inactive)
- GI50 (HCT-116): > 100 µM (inactive)
- GI50 (UO-31): > 100 µM (inactive)
- GI50 (MCF7): > 100 µM (inactive)
- GI50 (HOP-92): > 100 µM (inactive)
- GI50 (MOLT-4): > 100 µM (inactive)
- GI50 (SW-620): > 100 µM (inactive)
- GI50 (HCT-15): > 100 µM
- GI50 (SF-295): > 100 µM (inactive)
- GI50 (BT-549): > 100 µM (inactive)
- GI50 (EKVX): > 100 µM (inactive)
- GI50 (OVCAR-3): > 100 µM (inactive)
- GI50 (IGROV-1): > 100 µM (inactive)
- GI50 (OVCAR-5): > 100 µM (inactive)
